Measurements as given in patent publication US11000033B2, “Ketone or oxime compound, and herbicide” (NISSAN CHEMICAL CORPORATION, priority 2014, dated 2021).

Tests used:
Assay type in all cases: in vivo
beet = test: Test Example 5: effect on crop by foliage application, plastic box (symbol f); details: 320 g/ha, 3 weeks after application
How it was run: (§1)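 Plants were raised from seed in a greenhouse (25° C. to 30° C.) after sowing in a plastic box of sterilized diluvial soil.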

[1] = test system: directly sowed rice plant; test: Test Example 3: effect on crop by foliage application, Wagner pot (symbol b); details: application herbicide amount 320 g/ha; for b (directly sowed rice plant) effect on crop grade: Table 24
How it was run: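 Steps: fill a 1/10000-are Wagner pot with alluvial soil; add water and mix to submerge at 0.1–0.5 cm depth; sow rice plus Echinochloa crus-galli var. crus-galli, Leptochloa chinensis and Cyperus difformis; grow in a 25–30 °C greenhouse.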

Apera spica-venti = test: Test Example 5: herbicidal effect by foliage application, plastic box (symbol L); details: 320 g/ha, 3 weeks after application
How it was run: (§2)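 Sowing in sterilized diluvial soil, 14 days' greenhouse growth at 25° C. to 30° C., then uniform small-sprayer foliar application of aqueous emulsion dilution; plants scored three weeks afterwards.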

wheat = test: Test Example 5: effect on crop by foliage application, plastic box (symbol e); details: 320 g/ha, 3 weeks after application
How it was run: as §1

rapeseed = test: Test Example 4: effect on crop by soil treatment (symbol g); details: for g: rapeseed, effect grade on crop: 320 g/ha
How it was run: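 The test used sterilized diluvial soil. Seed was set down in spots and overlaid with about 1.5 cm of soil before growth in a greenhouse kept at 25° C. to 30° C.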

Leptochloa chinensis = test: Test Example 3: herbicidal effect by foliage application, Wagner pot (symbol D); details: application herbicide amount 320 g/ha; for D (Leptochloa chinensis) herbicidal effect grade: Table 24
How it was run: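 The compound, formulated as an emulsion and diluted with water to a predetermined rate, is applied uniformly to leaves of two-week-old seedlings growing in submerged alluvial soil at 25–30 °C. Rice is included. Each plant is assessed 3 weeks later using defined criteria.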

Abutilon theophrasti = test: Test Example 4: herbicidal effect by soil treatment (symbol M)
How it was run: (§3)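 Seeds were sown in sterilized diluvial soil, covered with about 1.5 cm of soil, and the soil surface was sprayed with a water-diluted emulsion of the compound at a predetermined rate. Plants grew in a greenhouse at 25° C. to 30° C.; effects were scored visually 3 weeks after application.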

Digitaria ciliaris = test: Test Example 4: herbicidal effect by soil treatment (symbol F)
How it was run: as §3

Galium spurium = test: Test Example 5: herbicidal effect by foliage application, plastic box (symbol Q); details: 320 g/ha, 3 weeks after application
How it was run: as §2

Monochoria vaginalis = test: Test Example 1: herbicidal activity, application before weed generation in submerged conditions (symbol C); details: application herbicide amount 320 g/ha
How it was run: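 Weeds are sown into submerged alluvial soil alongside transplanted 2.5-leaf rice, and the compound, as an emulsion diluted to a set rate, is applied onto the water before emergence. Rating on the 0–5 herbicidal-ratio scale follows 3 weeks of greenhouse growth at 25–30 °C.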

transplanted rice plant = test: Test Example 1: effect on crop, application before weed generation in submerged conditions (symbol a); details: application herbicide amount 320 g/ha
How it was run: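 Alluvial soil pots flooded to 4 cm water, sown with Echinochloa oryzacola, Scirpus juncoides and Monochoria vaginalis, then transplanted with 2.5 leaf stage rice seedlings; pre-emergence application. Greenhouse 25° C. to 30° C.; scored 0–5 by herbicidal ratio 3 weeks after application.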

corn = test: Test Example 5: effect on crop by foliage application, plastic box (symbol c); details: 320 g/ha, 3 weeks after application
How it was run: as §1

Amaranthus retroflexus = test: Test Example 4: herbicidal effect by soil treatment (symbol N)
How it was run: as §3

[2] = application herbicide amount 320 g/ha

Row | SMILES | f: beet, effect on crop grade (beet) | b (directly sowed rice plant) effect on crop grade [1] | L: Apera spica-venti, herbicidal effect grade (Apera spica-venti) | e: wheat, effect on crop grade (wheat) | D (Leptochloa chinensis) herbicidal effect grade (Leptochloa chinensis) | Q: Galium spurium, herbicidal effect grade (Galium spurium) | C (Monochoria vaginalis) herbicidal effect grade (Monochoria vaginalis) | a (transplanted rice plant) effect on crop grade (transplanted rice plant) | c: corn, effect on crop grade (corn) | f: beet, effect on crop (criteria 0-5) (beet) | effect on crop b (directly sowed rice plant), grade 0-5 [1] | L: Apera spica-venti, herbicidal effect (criteria 0-5) (Apera spica-venti) | e: wheat, effect on crop (criteria 0-5) (wheat) | g: rapeseed, effect grade on crop (rapeseed) | herbicidal effect on D (Leptochloa chinensis), grade 0-5 (Leptochloa chinensis) | M: Abutilon theophrasti, herbicidal effect grade (Abutilon theophrasti; 320 g/ha) | F: Digitaria ciliaris, herbicidal effect grade (Digitaria ciliaris; 320 g/ha) | Q: Galium spurium, herbicidal effect (criteria 0-5) (Galium spurium) | Herbicidal effect grade, C: Monochoria vaginalis (Monochoria vaginalis) | Effect grade on crop, a: transplanted rice plant (transplanted rice plant) | other results
1 | CON=C(CC1CC(OC(=O)N2CCOCC2)=C(c2c(C)cc(C)cc2OC)C1=O)C1CC1 (mixture of isomers) [13-005] | 0 (Herbicidal ratio of 5% or lower (almost no effect)) | 5 (Herbicidal ratio of 90% or more (almost completely withered)) | 5 (Herbicidal ratio of 90% or more (almost completely withered)) | 5 (Herbicidal ratio of 90% or more (almost completely withered)) | 5 (Herbicidal ratio of 90% or more (almost completely withered)) | 0 (Herbicidal ratio of 5% or lower (almost no effect)) | 2 (Herbicidal ratio of 20% or higher and lower than 40%) | 5 (Herbicidal ratio of 90% or more (almost completely withered)) | 4 (Herbicidal ratio of 70% or higher and lower than 90%) | – | – | – | – | – | – | – | – | – | – | – | g: rapeseed, effect on crop grade (rapeseed; [2]): 0 (Herbicidal ratio of 5% or lower (almost no effect)); M: Abutilon theophrasti, herbicidal effect grade (Abutilon theophrasti; [2]): 0 (Herbicidal ratio of 5% or lower (almost no effect)); F: Digitaria ciliaris, herbicidal effect grade (Digitaria ciliaris; [2]): 4 (Herbicidal ratio of 70% or higher and lower than 90%); N: Amaranthus retroflexus, herbicidal effect grade (Amaranthus retroflexus; [2]): 0 (Herbicidal ratio of 5% or lower (almost no effect))
2 | Cc1cc(C)c(C2=C(O)CC(CC(=NOCC(F)(F)F)C3CC3)C2=O)c(C)c1 (centres unmarked) [1-131] | – | – | – | – | – | – | – | – | – | 0 (Herbicidal ratio of 5% or lower (almost no effect)) | 5 (Herbicidal ratio of 90% or more (almost completely withered)) | 5 (Herbicidal ratio of 90% or more (almost completely withered)) | 2 (Herbicidal ratio of 20% or higher and lower than 40%) | 4 (Herbicidal ratio of 70% or higher and lower than 90%) | 5 (Herbicidal ratio of 90% or more (almost completely withered)) | 0 (Herbicidal ratio of 5% or lower (almost no effect)) | 4 (Herbicidal ratio of 70% or higher and lower than 90%) | 0 (Herbicidal ratio of 5% or lower (almost no effect)) | 1 (Herbicidal ratio of 5% or higher and lower than 20%) | 4 (Herbicidal ratio of 70% or higher and lower than 90%) | c: corn, effect on crop (criteria 0-5) (corn): 3 (Herbicidal ratio of 40% or higher and lower than 70%); N: Amaranthus retroflexus, herbicidal effect grade (Amaranthus retroflexus; 320 g/ha): 0 (Herbicidal ratio of 5% or lower (almost no effect))
3 | CC#Cc1cc(C)c(C2=C(O)CC(CC(=NOC)C(C)C)C2=O)c(C)c1 (centres unmarked) [9-006] | 0 (Herbicidal ratio of 5% or lower (almost no effect)) | 5 (Herbicidal ratio of 90% or more (almost completely withered)) | 5 (Herbicidal ratio of 90% or more (almost completely withered)) | 5 (Herbicidal ratio of 90% or more (almost completely withered)) | 5 (Herbicidal ratio of 90% or more (almost completely withered)) | 0 (Herbicidal ratio of 5% or lower (almost no effect)) | 0 (Herbicidal ratio of 5% or lower (almost no effect)) | 5 (Herbicidal ratio of 90% or more (almost completely withered)) | 5 (Herbicidal ratio of 90% or more (almost completely withered)) | – | – | – | – | – | – | – | – | – | – | – | Effect on crop grade, g: rapeseed (rapeseed; [2]): 3 (Herbicidal ratio of 40% or higher and lower than 70%); Herbicidal effect grade, M: Abutilon theophrasti (Abutilon theophrasti; [2]): 0 (Herbicidal ratio of 5% or lower (almost no effect)); Herbicidal effect grade, F: Digitaria ciliaris (Digitaria ciliaris; [2]): 5 (Herbicidal ratio of 90% or more (almost completely withered)); Herbicidal effect grade, N: Amaranthus retroflexus (Amaranthus retroflexus; [2]): 2 (Herbicidal ratio of 20% or higher and lower than 40%)
4 | CON=C(C)CC1CC(OC(C)=O)=C(c2c(C)cc(C)cc2C)C1=O (centres unmarked) [1-005] | 3 (Herbicidal ratio of 40% or higher and lower than 70%) | – | 5 (Herbicidal ratio of 90% or more (almost completely withered)) | 5 (Herbicidal ratio of 90% or more (almost completely withered)) | – | 4 (Herbicidal ratio of 70% or higher and lower than 90%) | – | – | 5 (Herbicidal ratio of 90% or more (almost completely withered)) | – | 5 (Herbicidal ratio of 90% or more (almost completely withered)) | – | – | – | 5 (Herbicidal ratio of 90% or more (almost completely withered)) | – | – | – | 5 (Herbicidal ratio of 90% or more (almost completely withered)) | 5 (Herbicidal ratio of 90% or more (almost completely withered)) | g (rapeseed) effect on crop grade (rapeseed; [2]): 4 (Herbicidal ratio of 70% or higher and lower than 90%); M (Abutilon theophrasti) herbicidal effect grade (Abutilon theophrasti; [2]): 5 (Herbicidal ratio of 90% or more (almost completely withered)); F (Digitaria ciliaris) herbicidal effect grade (Digitaria ciliaris; [2]): 5 (Herbicidal ratio of 90% or more (almost completely withered)); N (Amaranthus retroflexus) herbicidal effect grade (Amaranthus retroflexus; [2]): 5 (Herbicidal ratio of 90% or more (almost completely withered))
5 | CC(CC1CC(O)=C(c2c(C)cc(C)cc2C)C1=O)=NOCC(N)=O (centres unmarked) [1-124] | – | – | – | – | – | – | – | – | – | 0 (Herbicidal ratio of 5% or lower (almost no effect)) | 5 (Herbicidal ratio of 90% or more (almost completely withered)) | 3 (Herbicidal ratio of 40% or higher and lower than 70%) | 3 (Herbicidal ratio of 40% or higher and lower than 70%) | 0 (Herbicidal ratio of 5% or lower (almost no effect)) | 5 (Herbicidal ratio of 90% or more (almost completely withered)) | 0 (Herbicidal ratio of 5% or lower (almost no effect)) | 0 (Herbicidal ratio of 5% or lower (almost no effect)) | 0 (Herbicidal ratio of 5% or lower (almost no effect)) | 0 (Herbicidal ratio of 5% or lower (almost no effect)) | 0 (Herbicidal ratio of 5% or lower (almost no effect)) | c: corn, effect on crop (criteria 0-5) (corn): 4 (Herbicidal ratio of 70% or higher and lower than 90%); N: Amaranthus retroflexus, herbicidal effect grade (Amaranthus retroflexus; 320 g/ha): 0 (Herbicidal ratio of 5% or lower (almost no effect))
